{"source": "paper PMC11462260", "about": "“Anthricin-induced hyperactive proteasome and its molecular mechanism” (Biochemistry and Biophysics Reports, 2024)", "molecular_target": "T1, human 20S proteasome (Homo sapiens, UniProt P28072+P28074+Q99436)", "T1 construct": "gene PSMB6; native 20S core particle from human erythrocytes (commercial), 28 subunits of 14 types, lysine-biotinylated, on streptavidin beads", "assay": "pull-down on biotinylated proteasome beads, LC-MS/MS of eluate", "conditions": "20 uM anthricin, 250 pmol proteasome, 30 min, room temperature, D-PBS with 0.1 % BSA; binding site not mapped experimentally", "data": [{"smiles": "COc1cc([C@@H]2c3cc4c(cc3C[C@H]3COC(=O)[C@@H]32)OCO4)cc(OC)c1OC", "note": "[anthricin]", "values": [{"measurement": "pull-down on biotinylated proteasome beads, LC-MS/MS of eluate", "value": "When anthricin was mixed with the proteasome-immobilized beads, a clear peak corresponding to anthricin was detected"}]}]}
